Structures are written as SMILES.

The term IC50 denotes the point on the concentration scale where inhibition reaches its midpoint. Lower therefore signals inhibition by little substance.

The assay has as its system KRAS G12V dependent lung adenocarcinoma cell line, NCI-H441. In words: Cellular pERK (Thr202/Tyr204) FRET/HTRF assay. The class given is cell-based. The settings on record: Homo sapiens, NCI-H441, cellular pERK (Thr202/Tyr204) HTRF, NCI-H441 cells. A digest of the protocol:
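NCI-H441, overnight plating → cpd 1 hr, 37 °C/5% CO2; DMSO neg ctrl. Lyse (phosphatase inhibitors), add donor/acceptor Abs, RT incubation, HTRF read. IC50 by curve fit.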
Consider `[2H]C([2H])(F)Oc1c(F)c(F)cc2cccc(-c3ncc4c(N5CCCC[C@H]6[C@H](F)[C@H]65)nc(OC([2H])([2H])[C@@]56CCCN5C[C@H](F)C6)nc4c3F)c12` [Example 95, 7-(6,7-difluoro-8-(fluoromethoxy-d2)naphthalen-1-yl)-8-fluoro-4-((1S,7R,8S)-8-fluoro-2-azabicyclo[5.1.0]octan-2-yl)-2-(((2R,7aS)-2-fluorotetrahydro-1H-pyrrolizin-7a(5H)-yl)methoxy-d2)pyrido[4,3-d]pyrimidine], for which the IC50 was below 50 nM.

`[2H]C([2H])(Oc1nc(N2CCCC[C@H]3[C@H](F)[C@H]32)c2cnc(-c3cc(N)cc4c(F)cc(F)c(C#C)c34)c(F)c2n1)[C@@]12CCCN1C[C@H](F)C2` [Example 96, 5-ethynyl-6,8-difluoro-4-(8-fluoro-4-((1S,7R,8S)-8-fluoro-2-azabicyclo[5.1.0]octan-2-yl)-2-(((2R,7aS)-2-fluorotetrahydro-1H-pyrrolizin-7a(5H)-yl)methoxy-d2)pyrido[4,3-d]pyrimidin-7-yl)naphthalen-2-amine] registered an IC50 below 50 nM. In the case of `[2H]C([2H])(Oc1nc(N2CCCC[C@H]3[C@H](F)[C@H]32)c2cnc(-c3cncc4ccc(F)c(C#C)c34)c(F)c2n1)[C@@]12CCCN1C[C@H](F)C2` [Example 97, 7-(5-Ethynyl-6-fluoroisoquinolin-4-yl)-8-fluoro-4-((1S,7R,8S)-8-fluoro-2-azabicyclo[5.1.0]octan-2-yl)-2-(((2R,7aS)-2-fluorotetrahydro-1H-pyrrolizin-7a(5H)-yl)methoxy-d2)pyrido[4,3-d]pyrimidine] it was below 50 nM. In the case of `[2H]C([2H])(Oc1nc(N2CCCC[C@H]3[C@H](F)[C@H]32)c2cnc(-c3cncc4ccc(F)c(OC)c34)c(F)c2n1)[C@@]12CCCN1C[C@H](F)C2` [Example 98, 8-Fluoro-7-(6-fluoro-5-methoxyisoquinolin-4-yl)-4-((1S,7R,8S)-8-fluoro-2-azabicyclo[5.1.0]octan-2-yl)-2-(((2R,7aS)-2-fluorotetrahydro-1H-pyrrolizin-7a(5H)-yl)methoxy-d2)pyrido[4,3-d]pyrimidine], the IC50 is below 50 nM. In the case of `[2H]C([2H])(Oc1nc(N2CCC=C[C@@H]3[C@@H](F)[C@@H]32)c2cnc(-c3cc(N)cc4cc(F)c(F)c(C#C)c34)c(F)c2n1)[C@@]12CCCN1C[C@H](F)C2` [Example 99, 5-ethynyl-6,7-difluoro-4-(8-fluoro-4-((1R,7S,8R)-8-fluoro-2-azabicyclo[5.1.0]oct-5-en-2-yl)-2-(((2R,7aS)-2-fluorotetrahydro-1H-pyrrolizin-7a(5H)-yl)methoxy-d2)pyrido[4,3-d]pyrimidin-7-yl)naphthalen-2-amine] it was below 50 nM; in that of `[2H]C([2H])(F)Oc1c(F)ccc2cc(N)cc(-c3ncc4c(N5CCCC[C@H]6[C@H](F)[C@H]65)nc(OC([2H])([2H])[C@@]56CCCN5C[C@H](F)C6)nc4c3F)c12` [Example 100, 6-Fluoro-4-(8-fluoro-4-((1S,7R,8S)-8-fluoro-2-azabicyclo[5.1.0]octan-2-yl)-2-(((2R,7aS)-2-fluorotetrahydro-1H-pyrrolizin-7a(5H)-yl)methoxy-d2)pyrido[4,3-d]pyrimidin-7-yl)-5-(fluoromethoxy-d2)naphthalen-2-amine], below 50 nM; in that of `[2H]C1([2H])OCCN(c2nc(OC([2H])([2H])[C@@]34CCCN3C[C@H](F)C4)nc3c(F)c(-c4cccc5ccc(F)c(C#C)c45)ncc23)[C@@H]2[C@@H](F)[C@@H]21` [Example 101, (1S,7S,8S)-2-(7-(8-ethynyl-7-fluoronaphthalen-1-yl)-8-fluoro-2-(((2R,7aS)-2-fluorotetrahydro-1H-pyrrolizin-7a(5H)-yl)methoxy-d2)pyrido[4,3-d]pyrimidin-4-yl)-8-fluoro-5-oxa-2-azabicyclo[5.1.0]octane-6,6-d2], below 50 nM. `C#Cc1c(F)ccc2cccc(-c3ncc4c(N5CCOC[C@H]6[C@H](F)[C@H]65)nc(OC[C@@]56CCCN5CC(=C(F)F)C6)nc4c3F)c12` [Example 102, (1S,7S,8S)-2-(2-(((S)-2-(Difluoromethylene)tetrahydro-1H-pyrrolizin-7a(5H)-yl)methoxy)-7-(8-ethynyl-7-fluoronaphthalen-1-yl)-8-fluoropyrido[4,3-d]pyrimidin-4-yl)-8-fluoro-5-oxa-2-azabicyclo[5.1.0]octane]: the IC50 is below 50 nM. As to `C#Cc1c(F)ccc2cccc(-c3ncc4c(N5CCOC[C@@H]6[C@@H](F)[C@@H]65)nc(OC[C@@]56CCCN5CC(=C(F)F)C6)nc4c3F)c12` [Example 103, (1R,7R,8R)-2-(2-(((S)-2-(difluoromethylene)tetrahydro-1H-pyrrolizin-7a(5H)-yl)methoxy)-7-(8-ethynyl-7-fluoronaphthalen-1-yl)-8-fluoropyrido[4,3-d]pyrimidin-4-yl)-8-fluoro-5-oxa-2-azabicyclo[5.1.0]octane], the IC50 is 500 to 10000 nM. Regarding `C#Cc1c(F)ccc2cccc(-c3ncc4c(N5CCOC[C@H]6[C@H](F)[C@H]65)nc(OC[C@]56CCCN5CC(=C(F)F)C6)nc4c3F)c12` [Example 104, (1S,7S,8S)-2-(2-(((R)-2-(difluoromethylene)tetrahydro-1H-pyrrolizin-7a(5H)-yl)methoxy)-7-(8-ethynyl-7-fluoronaphthalen-1-yl)-8-fluoropyrido[4,3-d]pyrimidin-4-yl)-8-fluoro-5-oxa-2-azabicyclo[5.1.0]octane], the IC50 is below 50 nM. In the case of `C#Cc1c(F)c(F)cc2cccc(-c3ncc4c(N5CCOC[C@H]6[C@H](F)[C@H]65)nc(OC[C@@]56CCCN5CC(=C(F)F)C6)nc4c3F)c12` [Example 105, (1S,7S,8S)-2-(2-(((S)-2-(difluoromethylene)tetrahydro-1H-pyrrolizin-7a(5H)-yl)methoxy)-7-(8-ethynyl-6,7-difluoronaphthalen-1-yl)-8-fluoropyrido[4,3-d]pyrimidin-4-yl)-8-fluoro-5-oxa-2-azabicyclo[5.1.0]octane] it was below 50 nM. Molecule `C#Cc1c(F)c(F)cc2cccc(-c3ncc4c(N5CCOC[C@@H]6[C@@H](F)[C@@H]65)nc(OC[C@@]56CCCN5CC(=C(F)F)C6)nc4c3F)c12` [Example 106, (1R,7R,8R)-2-(2-(((S)-2-(difluoromethylene)tetrahydro-1H-pyrrolizin-7a(5H)-yl)methoxy)-7-(8-ethynyl-6,7-difluoronaphthalen-1-yl)-8-fluoropyrido[4,3-d]pyrimidin-4-yl)-8-fluoro-5-oxa-2-azabicyclo[5.1.0]octane] returned an IC50 of 500 to 10000 nM. `C#Cc1c(F)c(F)cc2cccc(-c3ncc4c(N5CCOC[C@H]6[C@H](F)[C@H]65)nc(OC[C@]56CCCN5CC(=C(F)F)C6)nc4c3F)c12` [Example 107, (1S,7S,8S)-2-(2-(((R)-2-(difluoromethylene)tetrahydro-1H-pyrrolizin-7a(5H)-yl)methoxy)-7-(8-ethynyl-6,7-difluoronaphthalen-1-yl)-8-fluoropyrido[4,3-d]pyrimidin-4-yl)-8-fluoro-5-oxa-2-azabicyclo[5.1.0]octane] registered an IC50 of 50 to 500 nM. With `[2H]C([2H])(Oc1nc(N2CCOC[C@H]3[C@H](F)[C@H]32)c2cnc(-c3cc(N)cc4c(F)cc(F)c(C#C)c34)c(F)c2n1)[C@@]12CCCN1C[C@H](F)C2` [Example 108, 5-ethynyl-6,8-difluoro-4-(8-fluoro-4-((1S,7S,8S)-8-fluoro-5-oxa-2-azabicyclo[5.1.0]octan-2-yl)-2-(((2R,7aS)-2-fluorotetrahydro-1H-pyrrolizin-7a(5H)-yl)methoxy-d2)pyrido[4,3-d]pyrimidin-7-yl)naphthalen-2-amine] the figure was below 50 nM. With `[2H]C([2H])([2H])Oc1c(F)c(F)cc2cccc(-c3ncc4c(N5CCCC[C@H]6[C@H](F)[C@H]65)nc(OC([2H])([2H])[C@@]56CCCN5C[C@H](F)C6)nc4c3F)c12` [Example 109, 7-(6,7-difluoro-8-(methoxy-d3)naphthalen-1-yl)-8-fluoro-4-((1S,7R,8S)-8-fluoro-2-azabicyclo[5.1.0]octan-2-yl)-2-(((2R,7aS)-2-fluorotetrahydro-1H-pyrrolizin-7a(5H)-yl)methoxy-d2)pyrido[4,3-d]pyrimidine] the figure was 50 to 500 nM.

The molecule `[2H]C([2H])([2H])Oc1c(F)c(F)c(F)c2cccc(-c3ncc4c(N5CCCC[C@H]6[C@H](F)[C@H]65)nc(OC([2H])([2H])[C@@]56CCCN5C[C@H](F)C6)nc4c3F)c12` [Example 110, 8-fluoro-4-((1S,7R,8S)-8-fluoro-2-azabicyclo[5.1.0]octan-2-yl)-2-(((2R,7aS)-2-fluorotetrahydro-1H-pyrrolizin-7a(5H)-yl)methoxy-d2)-7-(5,6,7-trifluoro-8-(methoxy-d3)naphthalen-1-yl)pyrido[4,3-d]pyrimidine] returned an IC50 of 500 to 10000 nM. In the case of `[2H]C([2H])(Oc1nc(N2CCCC[C@H]3[C@H](F)[C@H]32)c2cnc(-c3cccc4c(F)c(F)c(F)c(C#C)c34)c(F)c2n1)[C@@]12CCCN1C[C@H](F)C2` [Example 111, 7-(8-ethynyl-5,6,7-trifluoronaphthalen-1-yl)-8-fluoro-4-((1S,7R,8S)-8-fluoro-2-azabicyclo[5.1.0]octan-2-yl)-2-(((2R,7aS)-2-fluorotetrahydro-1H-pyrrolizin-7a(5H)-yl)methoxy-d2)pyrido[4,3-d]pyrimidine] it was 500 to 10000 nM; in that of `[2H]C([2H])(Oc1nc(N2CCCC[C@H]3[C@H](F)[C@H]32)c2cnc(-c3cccc4c(F)cc(F)c(C#C)c34)c(F)c2n1)[C@@]12CCCN1C[C@H](F)C2` [Example 112, 7-(8-ethynyl-5,7-difluoronaphthalen-1-yl)-8-fluoro-4-((1S,7R,8S)-8-fluoro-2-azabicyclo[5.1.0]octan-2-yl)-2-(((2R,7aS)-2-fluorotetrahydro-1H-pyrrolizin-7a(5H)-yl)methoxy-d2)pyrido[4,3-d]pyrimidine], 50 to 500 nM.

Source of the values: US20250282799A1, “SUBSTITUTED PYRIDO[4,3-d]PYRIMIDINES AS KRAS MODULATORS” (Alterome Therapeutics, Inc., priority 2023, published 2025).
